Consider 13 molecules from patent publication US20070060548A1, “Modulation of Epac, phospholipase Cepsilon, and phospholipase D to treat pain” (The Regents of the University of California, priority 2005, published 2007).

For assay [1], the system named is PKCε translocation in cultured DRG neurons. In words: PKCε translocation to the plasma membrane in cultured DRG neurons (immunocytochemistry, 50 cells per culture counted). The assay is classed as cell-based, rat. Particulars: for PKCε translocating cells after inhibitor pretreatment and CPTOMe stimulation: 15 min pretreatment (U73122/U73343 10 μM, 1-/2-butanol 50 mM), then CPTOMe 10 μM 90 s. The protocol: Cultures of dissociated dorsal root ganglia were prepared from male Sprague-Dawley rats (200-300 g, Charles River, Hollister, Calif., USA), adapting a previously described protocol (Khasar et al., 1999b). Rats were anesthetized with an overdose of Nembutal (50 mg per animal, s.c.). L1-L6 DRGs were removed, desheathed, pooled, incubated with collagenase (final concentration (f.c.) 0.125%, 1 h, 37° C.) followed by a trypsin digest (f.c. 0.25%, 7 min, 37° C.). Cells were separated by trituration with a fire polished Pasteur pipette. Axon stumps and dead cells were removed by straining (40 μm mesh), followed by centrifugation (3 min, 500 g). Cells were resuspended in 12 ml Neurobasal A/B27-media and plated 0.5 ml (=0.5 DRG equivalents) per culture onto polyornithine/laminin precoated glass cover slips (12 mm diameter) and incubated over night in 24-well plates at 37° C. in 5% CO2. Variability between batches of NeurobasalA media and its B27 supplement resulting in varying translocation of PKCε after stimulation was counteracted by the addition of up to […] ethanol (according to technical support of Invitrogen, less than 2.5% of the ethanol concentration already in the medium).
After a 15-20 h incubation, to allow cells to adhere to coverslips, the cells were stimulated. To ensure homogeneous dispersion of the stimulants, 250 μl of the 500 μl medium was removed, mixed thoroughly with the respective activator/inhibitor and added back to the same culture. […] Activators were added for the indicated time in concentrations based on literature reports. For all agonists time courses were established (some data not shown). Negative controls (unstimulated cells) were treated alike only without the addition of any pharmaceutical reagent. While the physiological stimulus epinephrine was used for the in vivo experiments, the β-AR agonist isoproterenol was used in vitro for identification of the β-AR subtype. After treatment the cells were washed once with phosphate buffered saline (PBS) and fixed with para-formaldehyde (PFA) (4%, 10 min, room temperature (RT)).
PFA-fixed cells were permeabilized with 0.1% Triton X-100 (10 min, RT), followed by three washes with 0.1% bovine serum albumin (BSA)/PBS (5 min, RT). After blockage of unspecific binding sites (5% BSA/10% normal goat serum/PBS, 1 h, RT) the cultures were probed with the respective primary antibody in 1% BSA/PBS (over night, 4° C.), washed three times (1% BSA/PBS, 5 min, RT) and incubated with the secondary fluorophore-coupled antiserum (final concentration (f.c.) 1:200, 1 h, RT). After three final washes (PBS, 5 min, RT), the cultures were mounted with Vectashield onto microscope slides and sealed with nail polish.
Cells were evaluated with a Nikon Microphot FXA microscope, using a 50× oil objective. 50 randomly selected cells per culture were evaluated. Data are plotted as mean percentage of translocating cells per evaluated culture±standard error of means (SEM) based on the number of evaluated cultures. All counting was done in blind fashion by the same observer. All treatments have been repeated with DRG-neurons from different rats, on at least 2 separate days. Confocal images were taken with a 100× oil immersion objective using a Zeiss Axiovert 100 microscope (Carl Zeiss Inc.) attached to a MRC 1000 confocal microscope (Bio-Rad). Epifluorescent images were taken with a 63× oil immersion objective using a Zeiss Axiovert 100 microscope.

A further assay relates to Sprague-Dawley rats. The assay is described as follows: Mechanical nociceptive threshold, Randall-Selitto paw pressure test after intradermal injection. Format: in vivo, rat. Particulars: for change of baseline mechanical sensitivity (paw-withdrawal threshold): inhibitor alone, without stimulation (U73122/U73343 2.5 μl 1 μg/μl, 1-/2-butanol 2.5 μl); for CPTOMe-induced hyperalgesia after inhibitor preinjection: inhibitor preinjected 30 min before CPTOMe, positive = hyperalgesia; for effect on epinephrine-induced mechanical hyperalgesia: preinjection 30 min before epinephrine (also stated for CPTOMe); for reduction of paw-withdrawal threshold: agent alone, intradermal (epinephrine 0.1 μg, CPTOMe 6.3 μg in 2.5 μl), measured 30 min after injection. The protocol:
Behavioral experiments were performed on male Sprague-Dawley rats (200-300 g, Charles River, Hollister, Calif., USA). Animals were housed in a controlled environment in the Animal Care Facility of the University of California, San Francisco, under a 12 h light/dark cycle. Food and water were available ad libitum. Care and use of animals conformed to NIH guidelines. The UCSF Committee on Animal Research approved experimental protocols. All efforts were made to minimize the number of animals used. The nociceptive flexion reflex was quantified using the Randall-Selitto paw pressure device (Analgesymeter®, Stoetling), which applies a linearly increasing mechanical force to the dorsum of the rat's hind paw. The nociceptive mechanical threshold was defined as the force in grams at which the rat withdrew its paw. The protocols for this procedure have been previously described (Taiwo and Levine, 1989; Dina et al., 2003). Baseline paw-withdrawal threshold was defined as the mean of six readings before test agents were injected. Each paw was treated as an independent measure and each experiment was performed on a separate group of rats. Each group of rats was treated with only one agonist and/or antagonist injected peripherally by the intradermal route. Measurement of nociceptive threshold was taken 30 min after the administration of the hyperalgesic mediator. All behavioral testing was done between 10.00 and 16.00 h. The blocking agents were injected as described previously ([…] et al., 1995; […] et al., 1999a). […] […] et al., 1999a).

Setting [2] is: activator alone, 30 s stimulation (isoproterenol 1 μM, cholera toxin 1 μg/ml, forskolin 5 μM, CPTOMe 10 μM), mean±SEM.
Where [3] appears, read: 15 min pretreatment (ICI 118,551 50 μM, D-609 30 μM, U73122/U73343 10 μM, 1-/2-butanol 50 mM, BIM 100 nM), then isoproterenol 1 μM 30 s.

“And” between values parts separate entries of the source, which are not always exact repeats. Equal values may be shown once. “Also recorded” adds a separate entry of the source. Read-outs that look alike come from different tables or passages of the source.

With cholera toxin, in assay [1], the PKCε translocating cells is 15.2±3.0% and 24.0±1.9%; the “time of maximal PKCε translocation” value is 90 s.
On to `Cc1ncc2ccccc2c1C#N` [CMIQ, 4-cyano-3-methylisoquinoline], for which, in assay [1] (15 min preincubation, up to 1000-fold IC50 (0.03-30 μM), then isoproterenol 1 μM 30 s), the “effect on isoproterenol-induced PKCε translocation” value is given as “still translocated to the plasma membrane, as in control conditions”. Moreover, the “effect on mechanical paw-withdrawal threshold” value in the assay on Sprague-Dawley rats (CMIQ alone 2.5 μg/2.5 μl intradermally) is “did not change”. Besides, in the assay with Sprague-Dawley rats (CMIQ preinjected 15 min before PKAcs), the “effect on PKA catalytic subunit-induced hyperalgesia” value is recorded as “completely abrogated; also recorded: completely blocked”.
In turn, `C=C[C@@]1(C)CC(=O)[C@]2(O)[C@@]3(C)[C@@H](O)CCC(C)(C)[C@@H]3[C@H](O)[C@H](OC(C)=O)[C@@]2(C)O1` [forskolin] gave a PKCε translocating cells in assay [1] (setting [2]) of 22.3±4.2%.
Consider `CCCCO` [1-butanol], for which the “PKCε translocating cells after inhibitor pretreatment and isoproterenol stimulation” value in assay [1] (setting [3]) is on record as 5.5±1.1%. Also, in assay [1], the “PKCε translocating cells after inhibitor pretreatment and CPTOMe stimulation” value was 8.7±1.5%. Further, in the assay with Sprague-Dawley rats, the “change of baseline mechanical sensitivity (paw-withdrawal threshold)” value (shortened to “change”) is −0.0%±1.8%, the “CPTOMe-induced hyperalgesia after inhibitor preinjection” value is reported as −0.5%±1.8% and the “effect on epinephrine-induced mechanical hyperalgesia” value is listed as “inhibits completely”.
As to `S=C([S-])OC1CC2CC1C1CCCC21.[K+]` [D-609], the “PKCε translocating cells after inhibitor pretreatment and isoproterenol stimulation” value in assay [1] (setting [3]) is listed as 20.8±2.9%.
As for `CC(C)NC[C@H](O)c1ccc(O)c(O)c1` [isoproterenol, (−)-isoproterenol], the PKCε translocating cells in assay [1] (setting [2]) is 21.3%±2.8% and 19.0±3.0%. Besides, in assay [1] (activator alone, time course), the “time of maximal PKCε translocation” value is reported as “about 30 s”.
Regarding `Cc1ccc(OCC(O)C(C)NC(C)C)c2c1CCC2` (stereo not shown) [ICI 118,551], the “PKCε translocating cells after inhibitor pretreatment and isoproterenol stimulation” value in assay [1] (setting [3]) is given as 3.0%±1.1%.
As to `CCC(C)O` (stereo not shown) [2-butanol], the “PKCε translocating cells after inhibitor pretreatment and isoproterenol stimulation” value in assay [1] (setting [3]) was 16.0±2.4%. Further, the “PKCε translocating cells after inhibitor pretreatment and CPTOMe stimulation” value in assay [1] was 21.8±2.7%. In the assay with Sprague-Dawley rats, the “change” value is given as −8%±1.7% and the “CPTOMe-induced hyperalgesia after inhibitor preinjection” value was 33.4±1.7%.
Consider `CO[C@@H]1[C@@H]2OP(=O)(O)OC[C@H]2O[C@H]1n1c(Sc2ccc(Cl)cc2)nc2c(N)ncnc21` [CPTOMe, 8-CPT-2′-O-Me-cAMP], for which the PKCε translocating cells in assay [1] was 20.3±2.6% and 23.5±3.7%. In addition, the “time of maximal PKCε translocation” value in assay [1] (activator alone, time course) turned out to be 90 s. Also, in the assay with Sprague-Dawley rats (CPTOMe alone, comparator of the inhibitor experiment), the CPTOMe-induced hyperalgesia was 31.7%±0.8%. In the assay on Sprague-Dawley rats, the “reduction of paw-withdrawal threshold” value is reported as 34.6±1.6%.
With `CN(C)CCCn1cc(C2=C(c3c[nH]c4ccccc34)C(=O)NC2=O)c2ccccc21` [BIM, bisindolylmaleimide I], the “PKCε translocating cells after inhibitor pretreatment and isoproterenol stimulation” value in assay [1] was 19.8±1.3%.
With `COc1ccc2c(c1)CC[C@@H]1[C@@H]2CC[C@]2(C)[C@@H](NCCCCCCN3C(=O)CCC3=O)CC[C@@H]12` [U73343], in assay [1] (setting [3]), the “PKCε translocating cells after inhibitor pretreatment and isoproterenol stimulation” value came to 15.3±1.9%. Besides, the “PKCε translocating cells after inhibitor pretreatment and CPTOMe stimulation” value in assay [1] was 23.7±3.6%. Moreover, in the assay with Sprague-Dawley rats, the “change” value is recorded as 2.8%±1.9% and the “CPTOMe-induced hyperalgesia after inhibitor preinjection” value is on record as 30.9%±1.9%.
Consider `COc1ccc2c(c1)CC[C@@H]1[C@@H]2CC[C@]2(C)[C@@H](NCCCCCCN3C(=O)C=CC3=O)CC[C@@H]12` [U73122], for which the “PKCε translocating cells after inhibitor pretreatment and isoproterenol stimulation” value in assay [1] (setting [3]) is on record as 0.3±0.3%. Also, the “PKCε translocating cells after inhibitor pretreatment and CPTOMe stimulation” value in assay [1] turned out to be 2.0±0.9%. Further, in the assay on Sprague-Dawley rats, the “change” value is given as −4.4%±1.3%, the “CPTOMe-induced hyperalgesia after inhibitor preinjection” value is −2.5%±2.0% and the “effect on epinephrine-induced mechanical hyperalgesia” value was “completely blocked”.
In the case of `CNC[C@H](O)c1ccc(O)c(O)c1` [epinephrine], in the assay with Sprague-Dawley rats, the “reduction of paw-withdrawal threshold” value turned out to be 37.7±1.9%.
